Tests used:
[1] = test system: IL-1β mRNA in VTA, NAc, vmPFC; assay: IL-1β mRNA in brain micro-punches after systemic drug; type: in vivo, rat; settings: (+)-naloxone […] s.c. twice; 30 min and 2 h after cocaine 10 mg/kg
[2] = test system: extracellular dopamine in the NAc; assay: In vivo microdialysis of NAc shell dopamine; parameters: species or system rat; settings: for effect on basal NAc dopamine levels: antagonist alone; for effect on intra-VTA neurotensin-induced elevation of NAc dopamine: control for non-specific disruption of neuronal responsiveness; for extracellular NAc dopamine, compound alone: cocaine 10 mg/kg systemic, neurotensin 10 nMol or LPS 10 ng intra-VTA; for increase of NAc dopamine concentrations: intra-VTA LPS vs systemic cocaine
[3] = test system: cocaine conditioned place preference; assay: Conditioned place preference; type: in vivo, rat; settings: tested drug-free; cocaine 10 mg/kg i.p.
[4] = test system: isolated neonatal microglial cells; assay: IL-1β mRNA expression in isolated neonatal microglial cell culture; settings: neonatal microglia; (+)-naloxone 1, 10, 100 µM co-treatment
[5] = type: in vivo, rat; settings: pretreatment […] s.c. twice; cocaine 10 mg/kg i.p.; hippocampus
[6] = test system: cocaine self-administration; assay: Rat self-administration; type: in vivo; settings: pre-session (+)-naltrexone s.c.
[7] = target: T1, MD-2 (Homo sapiens, UniProt Q9Y6Y9); assay: Bis-ANS displacement assay; type: binding
T1 sequence (Q9Y6Y9 19-160): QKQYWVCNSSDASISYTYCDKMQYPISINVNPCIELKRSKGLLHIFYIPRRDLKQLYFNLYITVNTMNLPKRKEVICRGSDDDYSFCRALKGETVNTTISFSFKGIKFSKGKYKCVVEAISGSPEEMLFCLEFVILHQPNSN

[8] = target: T1, MD-2; assay: Biophysical ELISA binding assays

C=CCN1CC[C@]23c4c5ccc(O)c4O[C@H]2C(=O)CC[C@]3(O)[C@H]1C5 [(+)-Naloxone]
effect on cocaine-induced increases of intra-VTA IL1β mRNA [1]: blocked | effect on basal NAc dopamine levels [2]: did not influence basal dopamine levels | effect on intra-VTA neurotensin-induced elevation of NAc dopamine [2]: unaltered | conditioned place preference, compound alone [3]: produced no appetitive or aversive CPP | effect on cocaine-induced upregulation of IL-1β mRNA [4]: blocked | effect on brain cocaine concentrations [5]: not altered

O=C1CC[C@]2(O)[C@@H]3Cc4ccc(O)c5c4[C@]2(CCN3CC2CC2)[C@@H]1O5 [(+)-naltrexone]
effect on food-maintained responding [6]: failed to suppress responding to food | effect on responding for cocaine (self-administration) ([6]; fixed-ratio dose-response): suppressed responding for cocaine at the peak cocaine doses

COC(=O)[C@H]1[C@@H](OC(=O)c2ccccc2)C[C@@H]2CC[C@H]1N2C [Cocaine]
extracellular NAc dopamine, compound alone [2]: robust increases in extracellular NAc dopamine | increase of NAc dopamine concentrations [2]: 300% | conditioned place preference, compound alone [3]: produces place preference | Ki [7]: 23.9 ± 5.9 µM | binding to human MD-2 (ELISA) ([8]; aptamer-immobilized cocaine): bound to human MD-2 in a concentration-dependent manner

CN(C)c1ccc(O)c2c1C[C@H]1C[C@H]3[C@H](N(C)C)C(O)=C(C(N)=O)C(=O)[C@@]3(O)C(O)=C1C2=O [minocycline]
conditioned place preference, compound alone [3]: neither water nor minocycline altered place preference

IL1ra: IL-1 receptor antagonist
effect on basal NAc dopamine levels [2]: did not alter basal DA levels in the NAc | effect on intra-VTA neurotensin-induced elevation of NAc dopamine [2]: did not alter neurotensin-induced dopamine elevations in the NAc

lipopolysaccharide [LPS]
extracellular NAc dopamine, compound alone [2]: increased | increase of NAc dopamine concentrations [2]: < 200% | competition with cocaine for binding to MD-2 (ELISA) ([8]; varying concentrations of LPS added): displaced cocaine binding to MD-2

neurotensin
extracellular NAc dopamine, compound alone [2]: induced increased NAc dopamine

— publication PMC4523496 (Molecular psychiatry, 2015)
